Among the data in patent US7709514B2, “Therapeutic molecules and methods-1” (Cortical Pty Ltd, priority 2002, dated 2010) are inhibition, EC50 and melting point values, retold here.

pEC50: −log10 of the molar value. Like-named read-outs stand apart in the source and are kept apart here.

The test system of data set [1] is IL-1-induced COX-2 expression. Put plainly: IL-1-induced COX-2 expression in S112 human dermal fibroblasts (MIF-dependent bioassay). The class given is cell-based. Conditions: Homo sapiens, Fibroblast; for inhibition at 50 µM: read-out: % inhibition of IL-1-induced COX-2 expression; for inhibition at 25 µM: compound 25 μM. As to the method:
The activity of compounds was studied in a bioassay utilising MIF-dependent activation of human dermal fibroblasts. […] IL-1-induced COX-2 expression is therefore a MIF-dependent event. […] Prior to experimentation, cells were seeded at 10^5 cells/ml in RPMI/0.1% BSA for 18 hours. […] After 6 hours, cells were collected and intracellular COX-2 protein determined by permeabilisation flow cytometry. […] Cellular fluorescence was determined using a flow cytometer. At least 5000 events were counted for each reading, each of which was performed in duplicate, and the results expressed in mean fluorescence intensity (MFI) after subtraction of negative control-labelled cell fluorescence. The effect of each compound was determined by subtracting the IL-1+compound-treated cell MFI from the IL-1-treated cell (control) MFI and expressed as % inhibition. In each case the % inhibition of IL-1-induced COX-2 expression is expressed as the mean, or mean±SEM where results are available from multiple experiments.

Data set [2] has as its system antigen-specific T cell activation. Put plainly: antigen-specific (mBSA) activation of splenic T lymphocytes, 3H-thymidine incorporation. The class given is cell-based, mice. The following applies: Mus musculus, T-cell, read-out: EC50, inhibition of T cell activation. How it is done: C57BL6/J male mice, aged 7-10 weeks old, were immunised with 200 μg of methylated bovine serum albumin (mBSA) dissolved in 20 μL of saline, emulsified in 200 μL of Freund's complete adjuvant (FCA) by subcutaneous injection. Seven (7) days later mice received a booster immunisation with 100 μg mBSA in 10 μL saline plus 100 μL FCA by subcutaneous injection. After a further seven (7) days mice were killed and spleens collected aseptically into Hanks buffered saline solution (HBSS). A single cell suspension was prepared in Petri dishes by flushing DMEM using a 26G needle and 2 mL syringe. The resulting cell suspension was centrifuged for 5-7 minutes and supernatant discarded. Erythrocytes were lysed using a solution containing 0.579% NH4Cl, 0.000037% EDTA, and 0.1% NaHCO3 in a 37° C. water bath. Tubes were then filled with DMEM and centrifuged for 5-7 minutes. The cell-containing pellet was then resuspended in DMEM containing 5% fetal calf serum TICS) and 0.05% 2-mercapto-ethanol at a concentration of 1×10^6 cells/mL and plated at 1×10^5 cells/well in 96-well plastic tissue culture plates. Test substances (compound or vehicle) were added and incubated for 1 hour in a 37° C., 5% CO2 incubator. The specific stimulating antigen, mBSA, was then added at 10-50 μg/ml and plates incubated for 30 hours in a 37° C., 5% CO2 incubator. Tritiated ^3H-thymidine was then added at a concentration of 0.5 μCi/well for a further 18 hours. Cells were harvested on a Packard cell harvester, and the harvested material added to 750 μL/tube scintillation fluid. Scintillation counts were read on a Wallac beta-emission counter.
The concentration at which T cell activation was suppressed by 50% compared to vehicle-only-treated cells (EC50) was calculated using Prism® software. […] Further compounds were also tested for their ability to inhibit antigen-specific T cell activation as a marker of the inhibition of the cytokine or biological activity of MIF using this assay. Table 5 lists the EC50 for each compound in this assay, performed with concentrations of mBSA of either 50 or 10 μg/ml.
(In general: Incorporation of labelled thymidine or its analogues reports DNA synthesis.)

Data set [3] deals with murine peritoneal macrophage nitric oxide production. Description: inhibition of peritoneal macrophage nitric oxide release (Greiss assay). In kind it is cell-based, mice. The following applies: Mus musculus, LPS 10 ng/ml and interferon-γ 10 units/ml, 24 hours, read-out: % Nitrite concentration inhibition from control. How it is done: C57BL6/J male mice were injected intraperitoneally with 2 ml of thioglycollate. Five (5) days later peritoneal macrophages were collected by lavaging the peritoneum of anaesthetized mice with 3 ml of cold Hanks buffered saline solution. Cells from several mice were pooled, washed and re-suspended in DMEM supplemented with 5% FCS. Cells were plated in 96 well plastic tissue culture plates at 1×10^5 cells/well. Cells were treated with compound or vehicle for 1 hour in a 5% CO2 incubator at 37° C. Cells were then treated with LPS (10 ng/ml) and recombinant human interferon-γ (10 units/ml) and incubated for 24 hours. After 24 hours, 50 μl of supernatant from each well was carefully removed and transferred to ELISA plates. The concentration of nitrite in culture supernatants was measured by the Greiss assay (27). The results were defined as the percentage inhibition of nitrite concentration in compound-treated cell culture supernatants compared to that of vehicle-treated cells.

The mark [4] stands for this setting: compound 50 μM, S112 cells, IL-1 0.1 ng/ml, 6 hours.
Setting [5] is: S112 cells, IL-1 0.1 ng/ml, 6 hours.

`Cc1cc2[nH]c(=O)[nH]c2cc1Br` [Compound 17, 5-Bromo-6-methybenzimidazol-2-one]: the inhibition at 50 µM in data set [1] (setting [4]) turned out to be 22.4%. The negative logarithm of the EC50 (pEC50) in data set [2] (mBSA 10 μg/ml) is 5.54; in data set [2] (mBSA 50 μg/ml) it was 4.97.

As for `Cc1cc2[nH]c(=O)[nH]c2cc1[N+](=O)[O-]` [Compound 22, 5-Methyl-6-nitrobenzimidazol-2-one], the inhibition at 25 µM in data set [1] (setting [5]) was 30%. The negative-log EC50 (pEC50) in data set [2] (mBSA 10 μg/ml) and in data set [2] (mBSA 50 μg/ml) was less than 4.00 throughout.

In turn, `Cc1ccc2[nH]c(=O)[nH]c2c1` [Compound 2, 5-Methylbenzimidazol-2-one] displayed a melting point of 300 to 302 °C. Besides, in data set [1] (6 h), the inhibition at 50 µM was 13%. Further, the negative-log EC50 (pEC50) in data set [2] was 5.14.

On to `CCCCCOC(=O)c1ccc2[nH]c(=S)[nH]c2c1` [Compound 15, Pentyl-benzimidazole-2-thioxo-5-carboxylate], for which, in data set [1] (setting [4]), the inhibition at 50 µM worked out at 33.1%. Further, the negative-log EC50 (pEC50) in data set [2] (mBSA 10 μg/ml) was 5.03; in data set [2] (mBSA 50 μg/ml), 4.99.

The molecule `Cc1c(Br)c(Br)c2[nH]c(=O)[nH]c2c1Br` [Compound 20, 4,5,7-Tribromo-6-methylbenzimidazol-2-one] showed an inhibition at 25 µM in data set [1] (setting [5]) of 28.5%.

Turning to `COC(=O)c1ccc2[nH]c(=O)[nH]c2c1` [Compound 7, benzimidazol-2-one-5-methanoate], in data set [1] (setting [4]), the inhibition at 50 µM was 16.7%. Further, the negative-log EC50 (pEC50) is 4.47 in data set [2] (mBSA 10 μg/ml) and 4.35 in data set [2] (mBSA 50 μg/ml).

As for `CCCCCCC(=O)c1ccc2c(c1)CC(=O)O2` [Compound 33], the melting point lay in the range of 64 to 67 °C. In addition, the pEC50 in data set [2] (mBSA 10 μg/ml) is 4.61. Moreover, the negative-log EC50 (pEC50) in data set [2] (mBSA 50 μg/ml) was 4.86.

As for `CC(=O)OCC1OC(OC(=O)c2ccc3[nH]c(=O)[nH]c3c2)C(OC(C)=O)C(OC(C)=O)C1OC(C)=O` (stereo not drawn) [Compound 16, 3,4,5-tris(acetyloxy)-6-[(acetyloxy)methyl]tetrahydro-2H-pyran-2-yl-benzimidazole-2-one-5-carboxylate], the pEC50 in data set [2] (mBSA 10 μg/ml) is 4.62; in data set [2] (mBSA 50 μg/ml) it was 4.59.

For the molecule `O=C(NC(CO)C(=O)O)c1ccc2[nH]c(=O)[nH]c2c1` (stereo not drawn) [Compound 10, 3-hydroxy-2-{[(2-oxo-2,3-dihydro-1H-1,3-benzimidazol-5-yl)carbonyl]amino}propanoic acid], in data set [1] (setting [4]), the inhibition at 50 µM was 19.3%. For the same molecule, the negative-log EC50 (pEC50) in data set [2] (mBSA 10 μg/ml) was less than 4.00; in data set [2] (mBSA 50 μg/ml) it was 4.11.

In the case of `CCCCCOS(=O)(=O)c1ccc2[nH]c(=O)[nH]c2c1` [Compound 28, 2(3H)-benzimidazolone-5-sulfonic acid pentyl ester], the results for the negative logarithm of the EC50 (pEC50) in data set [2] (mBSA 10 μg/ml) and in data set [2] (mBSA 50 μg/ml) were 5.66 and 5.13, respectively.

On to `CCCCCSC(=O)c1ccc2[nH]c(=O)[nH]c2c1` [Compound 25, Pentyl-benzimidazol-2-one-5-carbothioate], for which the pEC50 in data set [2] (mBSA 10 μg/ml) and in data set [2] (mBSA 50 μg/ml) was less than 4.00 throughout.

Take `CCCCNC(=N)c1ccc2[nH]c(=O)[nH]c2c1` [Compound 32, N-butyl-2-oxo-2,3-dihydro-1H-1,3-benzimidazole-5-carboximidamide]: the melting point was 168 °C. The inhibition at 50 µM in data set [1] (setting [4]) was 13.8%. Also, in data set [2] (mBSA 10 μg/ml), the pEC50 was less than 4.00. Moreover, the negative-log EC50 (pEC50) in data set [2] (mBSA 50 μg/ml) is less than 4.00.

In the case of `O=C(OCCOCCO)c1ccc2[nH]c(=O)[nH]c2c1` [Compound 6, 5[2(1-oxy-2-hydroxyethyl)ethyl]benzimidazol-2-one-5-carboxylate], the melting point was in the range of 227 to 228 °C. For the same molecule, the inhibition at 50 µM in data set [1] (setting [4]) worked out at 17.8%. The negative logarithm of the EC50 (pEC50) in data set [2] (mBSA 10 μg/ml) is 4.59. Besides, in data set [2] (mBSA 50 μg/ml), the pEC50 was less than 4.00.

For `Cc1cc2[nH]c(=O)[nH]c2cc1O` [Compound 18, 5-Hydroxy-6-methybenzimidazol-2-one], the inhibition at 50 µM in data set [1] (setting [4]) is 2.4%. Also, the negative-log EC50 (pEC50) in data set [2] (mBSA 10 μg/ml) was 4.71; in data set [2] (mBSA 50 μg/ml), 4.47.

Regarding `O=C(NC(Cc1ccccc1)C(=O)O)c1ccc2[nH]c(=O)[nH]c2c1` (stereo not drawn) [Compound 12, 2-{[(2-oxo-2,3-dihydro-1H-1,3-benzimidazol-5-yl)carbonyl]amino}-3-phenyl propanoic acid], in data set [1] (setting [4]), the inhibition at 50 µM came to 19.9%. Besides, the pEC50 in data set [2] (mBSA 10 μg/ml) was less than 4.00; in data set [2] (mBSA 50 μg/ml), 4.11.

For `COC(=O)C(Cc1ccccc1)NC(=O)c1ccc2[nH]c(=O)[nH]c2c1` (stereo not drawn) [Compound 11, methyl 2-{[(2-oxo-2,3-dihydro-1H-1,3-benzimidazol-5-yl)carbonyl]amino}-3-phenyl propanoate], the values for the inhibition at 50 µM in data set [1] (setting [4]) and in data set [3] (compound 50 μM) were 17.5% and 28.1%, respectively. Besides, the figures for the negative-log EC50 (pEC50) in data set [2] (mBSA 10 μg/ml) and in data set [2] (mBSA 50 μg/ml) were 4.35 and 4.29, respectively. In addition, the inhibition at 25 µM in data set [3] (compound 25 μM) came to 3.1%. Also, the inhibition at 100 µM in data set [3] (compound 100 μM) was 65.5%.

`CCCCCNS(=O)(=O)c1ccc2[nH]c(=O)[nH]c2c1` [Compound 27, 2(3H)-benzimidazolone-5-sulfonic acid pentyl amide] gave a melting point of 316 to 318 °C. In data set [1] (setting [4]), the inhibition at 50 µM is 37.4%. The negative logarithm of the EC50 (pEC50) in data set [2] (mBSA 10 μg/ml) was 5.04. The pEC50 in data set [2] (mBSA 50 μg/ml) was 5.89.

As for `CCOC(=O)c1ccc2[nH]c(=O)[nH]c2c1` [Compound 8], in data set [1] (setting [4]), the inhibition at 50 µM amounted to 19.9%. The pEC50 was 4.59 in data set [2] (mBSA 10 μg/ml) and less than 4.00 in data set [2] (mBSA 50 μg/ml).

With `Cc1cc2[nH]c(=O)[nH]c2cc1N` [Compound 23, 5-Amino-6-methylbenzimidazol-2-one], in data set [1] (setting [4]), the inhibition at 50 µM amounted to 8.5%.

`O=C(O)CCCC(=O)c1ccc2[nH]c(=O)[nH]c2c1` [Compound 26, 5-(benzimidazol-2(3H)-one-6-yl)-5-oxopentanoic acid]: the inhibition at 50 µM in data set [1] (setting [4]) was found to be 9.8%. Also, the pEC50 is 4.99 in data set [2] (mBSA 10 μg/ml) and 5.64 in data set [2] (mBSA 50 μg/ml).

In turn, `CCCCCc1ccc2[nH]c(=O)[nH]c2c1` [Compound 34, 5-Pentylbenzimidazol-2-one] registered an inhibition at 10 µM in data set [1] (compound 10 μM, S112 cells, IL-1 0.1 ng/ml, 6 hours) of 14.9%. The pEC50 in data set [2] (mBSA 10 μg/ml) was 4.87; in data set [2] (mBSA 50 μg/ml), 4.30.

With `COC(=O)C(CO)NC(=O)c1ccc2[nH]c(=O)[nH]c2c1` (stereo not drawn) [Compound 9, methyl 3-hydroxy-2-{[(2-oxo-2,3-dihydro-1H-1,3-benzimidazol-5-yl)carbonyl]amino}propanoate], the inhibition at 50 µM in data set [1] (setting [4]) was found to be 14.9%. The pEC50 was 4.11 in data set [2] (mBSA 10 μg/ml) and 4.21 in data set [2] (mBSA 50 μg/ml).

Turning to `Cc1cc2[nH]c(=O)[nH]c2cc1NC(=O)CSc1ncccn1` [Compound 24], the inhibition at 50 µM in data set [1] (setting [4]) came to 30.3%.

The term pEC50 denotes the negative decadic logarithm of the EC50, by convention in mol/L. A word on the melting point: it is the temperature, or range, at which the solid turns liquid.
